Test results published in paper PMC3507590 (Diabetes Care, 2012).
Like-named read-outs stand apart in the source and are kept apart here.

Columns and labels:
[1] = for detectability / plasma concentration after s.c. glargine: any dose (0.3-1.2 units/kg), any time point 3-30 h, LLOQ 33 pmol/L
IGF-1 receptor (IGF-1R) = details: cited from earlier work; for affinity for IGF-1 receptor versus human insulin: as stated in the abstract
[2] = system: malignant cell lines expressing primarily IGF-1R; details: cited from earlier work
[3] = in vitro; cited from earlier work
[4] = system: insulin/IGF-1 hybrid receptors; details: in vitro; ref Pierre-Eugene et al., PLoS One 2012;7:e41992; cited from earlier work
insulin receptors (IR) = details: cited from earlier work
animals = details: in vivo in animals; cited from earlier work
MCF-7 cells = details: ref Pierre-Eugene et al., PLoS One 2012;7:e41992; cited from earlier work
[5] = in vitro, 37°C, mass spectrometry; cited from earlier work
[6] = system: subjects with type 1 and type 2 diabetes; details: after multiple dosing; cited from earlier work
[7] = acidic pH; precipitates amorphously upon s.c. injection; cited from earlier work

## 21^A-Gly-human insulin [M1]
[1]; M1 PK profile, doses 0.3, 0.6, 1.2 units/kg
  time of maximum plasma concentrations after subcutaneous injection of glargine: ~12 h
[1]; doses >0.3 units/kg
  plasma concentration by 30 h versus baseline: still elevated over baseline
IGF-1 receptor (IGF-1R); in vitro
  affinity for IGF-1 receptor versus human insulin: lower affinity
  affinity for IGF-1R compared with glargine, and even with human insulin: lower affinity
[2]
  mitogenic potential in vitro compared with glargine, and even with human insulin: lower mitogenic potential
[3]
  metabolic properties relative to human insulin: fully retaining its metabolic properties
[4]
  potency for stimulation of insulin/IGF-1 hybrid receptors versus human insulin: lower potency

## 21^A-Gly-des-30^B-Thr-human insulin [M2]
[1]; after s.c. glargine, associated with high M1 concentration
  time of first appearance in plasma: first appeared after 12 h
IGF-1 receptor (IGF-1R); in vitro
  affinity for IGF-1 receptor versus human insulin: lower affinity
  affinity for IGF-1R compared with glargine, and even with human insulin: lower affinity
[2]
  mitogenic potential in vitro compared with glargine, and even with human insulin: lower mitogenic potential
[3]
  metabolic properties relative to human insulin: fully retaining its metabolic properties
[4]
  potency for stimulation of insulin/IGF-1 hybrid receptors versus human insulin: lower potency

## 31^B-Arg-32^B-Arg-human insulin [reference compound]
IGF-1 receptor (IGF-1R); in vitro
  IGF-1R affinity compared with glargine: even greater IGF-1R affinity

## 10^B-Asp-human insulin [X10, reference compound]
IGF-1 receptor (IGF-1R)
  affinity for IGF-1R: greater affinity
Insulin receptors (IR)
  affinity for IR: greater affinity

## 21^A-Gly-31^B-Arg-32^B-Arg-human insulin [glargine, reference compound]
[1]
  detectability / plasma concentration after s.c. glargine: nearly always fall below LLOQ
[1]; listed as Glargine
  detectability / plasma concentration after s.c. glargine: detectable in only one-third of subjects
IGF-1 receptor (IGF-1R); in vitro
  affinity for IGF-1 receptor versus human insulin: slightly higher affinity
  binding affinity for IGF-1R compared with human insulin: greater binding affinity
[2]; in vitro, malignant cell lines expressing primarily IGF-1R
  potency on DNA synthesis (mitogenic effects) compared with human insulin: greater potency
animals
  tumor growth promotion: does not promote tumor growth
[4]
  potency for stimulation of insulin/IGF-1 hybrid receptors versus human insulin: higher potency
MCF-7 cells
  proliferative/antiapoptotic effects versus human insulin: greater proliferative/antiapoptotic effects
[5]
  time for quantitative degradation into M1 in human serum: ≤ 1 h
[6]
  duration of action: > 24 h
[7]
  solubility: Soluble at acidic pH
